Measured values published in patent publication US20260297542A1, “HERBICIDE RESISTANT PLANTS” (SYNGENTA CROP PROTECTION AG, priority 2023, published 2026).
Where a chain is given by its changes, count along the chain named.

Tests used:
Experiment in all cases: E. coli hemG growth inhibition by herbicide, AtPPO1 variant
Format in all cases: cell-based
Conditions in all cases: read-out: percentage growth inhibition
[1] = target: T1, AtPPO1 D448N (Arabidopsis thaliana, UniProt P55826, D448N)
T1 construct: expressed in transfected cells; host or cells: E. coli BL21(DE3) hemG, pET24a plasmid
T1 sequence (P55826 35-537 D448N): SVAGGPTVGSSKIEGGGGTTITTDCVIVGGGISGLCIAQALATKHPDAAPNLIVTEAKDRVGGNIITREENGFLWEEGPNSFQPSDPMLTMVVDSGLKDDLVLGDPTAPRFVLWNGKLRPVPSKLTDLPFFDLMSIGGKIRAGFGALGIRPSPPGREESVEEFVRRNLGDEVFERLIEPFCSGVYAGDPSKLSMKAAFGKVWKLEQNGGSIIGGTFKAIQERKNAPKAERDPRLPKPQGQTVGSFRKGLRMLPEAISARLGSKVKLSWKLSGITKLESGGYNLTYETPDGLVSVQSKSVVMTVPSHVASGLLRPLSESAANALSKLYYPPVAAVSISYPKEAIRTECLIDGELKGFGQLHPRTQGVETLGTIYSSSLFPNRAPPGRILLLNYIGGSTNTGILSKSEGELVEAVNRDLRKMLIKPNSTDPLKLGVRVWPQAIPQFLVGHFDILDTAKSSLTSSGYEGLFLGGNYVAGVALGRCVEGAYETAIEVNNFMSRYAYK
In short: (§1)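 Read-out is OD600 at 24 h post inoculation, converted to percent growth inhibition relative to DMSO. The hemG-deleted BL21(DE3) host relied on the plasmid-borne AtPPO1 variant, induced with 0.1 mM IPTG, with 6.25 ppm herbicide 0 or E or 0.78 ppm herbicide B present at 37° C.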

[2] = target: T2, AtPPO1 K270M (Arabidopsis thaliana, UniProt P55826, K270M)
T2 construct: expressed in transfected cells; host or cells: E. coli BL21(DE3) hemG, pET24a plasmid
T2 sequence (P55826 35-537 K270M): T1 sequence (P55826 35-537 D448N) with K236M, N414D
In short: as §1

[3] = target: T3, AtPPO1 T461Q (Arabidopsis thaliana, UniProt P55826, T461Q)
T3 construct: expressed in transfected cells; host or cells: E. coli BL21(DE3) hemG, pET24a plasmid
T3 sequence (P55826 35-537 T461Q): T1 sequence (P55826 35-537 D448N) with N414D, T427Q
In short: as §1

[4] = target: T4, AtPPO1 V206G (Arabidopsis thaliana, UniProt P55826, V206G)
T4 construct: expressed in transfected cells; host or cells: E. coli BL21(DE3) hemG (hemG replaced by CmR), pET24a plasmid
T4 sequence (P55826 35-537 V206G): T1 sequence (P55826 35-537 D448N) with V172G, N414D
In short: as §1

Compound	inhibition at 0.78 ppm [1]	inhibition at 0.78 ppm [2]	inhibition at 0.78 ppm [3]	inhibition at 0.78 ppm [4]	inhibition at 6.25 ppm [1]	inhibition at 6.25 ppm [2]	inhibition at 6.25 ppm [3]	inhibition at 6.25 ppm [4]
C#CCN1C(=O)C(F)(F)Oc2cc(F)c(-n3c(=O)n(C)c(=S)n(C)c3=O)cc21 [Herbicide B, trifludimoxazin]	40%	28%	31%	32%	–	–	–	–
CCOC(=O)[C@]1(C)CC(c2cc(-n3c(=O)n(C)c(=S)n(C)c3=O)c(F)cc2Cl)=NO1 [Herbicide D, ethyl (5S)-3-[2-chloro-5-(3,5-dimethyl-2,6-dioxo-4-thioxo-1,3,5-triazinan-1-yl)-4-fluoro-phenyl]-5-methyl-4H-isoxazole-5-carboxylate]	–	–	–	–	38%	23%	22%	19%
CC(C)N(C)S(=O)(=O)NC(=O)c1cc(-n2c(=O)cc(C(F)(F)F)n(C)c2=O)c(F)cc1Cl [Herbicide E, saflufenacil]	–	–	–	–	63%	29%	35%	58%
